This is an account of results in patent US5807671A (priority 1995, dated 1998).

Entries after “also recorded” stand apart in the source; their conditions may differ.

The test system of series [1] is normal and "atypical" BuChE. The series is classed as biochemical, human.
The next series concerns the target AChE E5 (Homo sapiens, UniProt P22303). In kind it is biochemical.
Another series relates to "atypical" serum BuChE. In kind it is biochemical, human.
The target in the next series is AChE E6 (Homo sapiens, UniProt P22303). In kind it is biochemical.
AChE E6, sequence (P22303 32-614): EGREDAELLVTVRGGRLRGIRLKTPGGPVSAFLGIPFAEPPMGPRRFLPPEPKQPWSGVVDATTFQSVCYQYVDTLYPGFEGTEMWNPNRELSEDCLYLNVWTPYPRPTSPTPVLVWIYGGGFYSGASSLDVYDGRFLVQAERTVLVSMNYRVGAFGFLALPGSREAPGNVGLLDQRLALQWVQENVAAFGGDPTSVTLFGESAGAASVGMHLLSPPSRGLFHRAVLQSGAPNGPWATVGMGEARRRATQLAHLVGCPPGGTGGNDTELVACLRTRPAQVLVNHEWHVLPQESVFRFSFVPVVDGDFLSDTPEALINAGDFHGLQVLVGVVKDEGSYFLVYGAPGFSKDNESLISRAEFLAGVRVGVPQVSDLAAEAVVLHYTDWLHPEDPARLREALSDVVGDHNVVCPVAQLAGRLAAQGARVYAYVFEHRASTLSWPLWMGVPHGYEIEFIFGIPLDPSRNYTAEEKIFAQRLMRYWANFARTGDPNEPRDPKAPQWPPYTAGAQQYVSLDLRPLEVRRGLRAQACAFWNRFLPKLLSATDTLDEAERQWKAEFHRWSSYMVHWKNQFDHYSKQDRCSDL
The target in the next series is BuChE normal (Homo sapiens, UniProt P06276). In kind it is biochemical.
BuChE normal, sequence (P06276 29-602): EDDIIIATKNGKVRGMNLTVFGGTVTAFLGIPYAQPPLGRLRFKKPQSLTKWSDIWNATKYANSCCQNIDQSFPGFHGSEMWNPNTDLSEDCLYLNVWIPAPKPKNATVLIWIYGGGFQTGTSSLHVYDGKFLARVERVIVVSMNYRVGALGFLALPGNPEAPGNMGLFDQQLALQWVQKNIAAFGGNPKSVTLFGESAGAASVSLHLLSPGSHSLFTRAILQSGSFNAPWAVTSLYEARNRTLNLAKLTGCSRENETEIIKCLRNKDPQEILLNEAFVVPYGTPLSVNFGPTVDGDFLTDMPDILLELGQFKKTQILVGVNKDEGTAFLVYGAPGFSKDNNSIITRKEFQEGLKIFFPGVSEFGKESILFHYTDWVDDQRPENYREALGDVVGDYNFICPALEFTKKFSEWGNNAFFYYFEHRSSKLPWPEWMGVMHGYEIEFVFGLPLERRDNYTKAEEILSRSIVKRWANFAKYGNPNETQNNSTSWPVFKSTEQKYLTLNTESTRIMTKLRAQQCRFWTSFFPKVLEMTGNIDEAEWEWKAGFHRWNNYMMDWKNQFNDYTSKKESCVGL
In the next series the target is BuChE "atypical" (Homo sapiens, UniProt P06276, D98G).
BuChE "atypical", sequence (P06276 29-602 D98G limits assumed): as the sequence (P06276 29-602) above, with D70G counted along it
The subject of the next series is AChE. In kind it is biochemical, human.
Another series relates to REM sleep. Particulars: in vivo; cited from earlier work.
Series [2] concerns ChEs (all of the examined enzymes). The series is classed as biochemical, human.
In the next series the test system is normal serum BuChE. In kind it is biochemical, human. The following applies: 30 min, 10 µM.
Series [3] relates to BuChE from heterozygous serum. The series is classed as biochemical, human. Particulars: 30 min, 10 µM.
A further series deals with serum BuChE. The following applies: in vivo; cited from earlier work.
The subject of series [4] is Alzheimer's disease. Particulars: in vivo; cited from earlier work.
The conditions of series [5]: human, in vivo; cited from earlier work.
A further series addresses serum BuChE "atypical" (Homo sapiens, UniProt P06276, D98G).
The subject of series [6] is BuChE of heterozygotes / 1:1 mixture of normal and "atypical" BuChE.
A further series has as its system Parkinson's disease. The following applies: human, in vivo; cited from earlier work.
The subject of series [7] is "atypical" BuChE. The following applies: cited from earlier work.
The test system of series [8] is "atypical" BuChE. The following applies: cited from earlier work. The source holds these as a separate data set.
The subject of series [9] is "atypical" BuChE. Particulars: cited from earlier work. This is another data set of the same source.
Series [10] has as its system Alzheimer's disease. The following applies: in vivo; cited from earlier work. The source holds these as a separate data set.
The conditions of series [11]: in vivo.
Series [12] deals with "atypical" BuChE. The series is classed as biochemical, human.
For series [13] the following is noted: in vivo. This is another data set of the same source.
The next series has as its system horse serum BuChE. Particulars: cited from earlier work.

AChE E5, sequence (P22303-4 with tags, fused parts or gaps limits assumed): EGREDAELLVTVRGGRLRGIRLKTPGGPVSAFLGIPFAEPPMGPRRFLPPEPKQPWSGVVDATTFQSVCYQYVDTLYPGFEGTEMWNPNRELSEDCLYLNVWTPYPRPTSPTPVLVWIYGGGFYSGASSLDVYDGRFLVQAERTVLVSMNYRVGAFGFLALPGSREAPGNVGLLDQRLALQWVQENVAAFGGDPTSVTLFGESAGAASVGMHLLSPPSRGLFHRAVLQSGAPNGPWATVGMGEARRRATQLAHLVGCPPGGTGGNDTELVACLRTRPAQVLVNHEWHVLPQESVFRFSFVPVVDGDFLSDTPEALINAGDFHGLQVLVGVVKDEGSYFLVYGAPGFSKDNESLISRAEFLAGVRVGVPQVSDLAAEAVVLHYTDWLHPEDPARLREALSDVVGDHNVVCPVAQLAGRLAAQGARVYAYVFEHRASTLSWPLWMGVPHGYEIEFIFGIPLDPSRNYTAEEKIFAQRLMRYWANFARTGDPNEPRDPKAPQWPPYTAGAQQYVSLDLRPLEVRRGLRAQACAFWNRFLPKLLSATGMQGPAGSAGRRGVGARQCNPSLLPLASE
serum BuChE "atypical", sequence (P06276 29-602 D98G limits assumed): as the sequence (P06276 29-602) above, with D70G counted along it

As for `CCCCCCCNC(=O)Oc1ccc2c(c1)C1(C)CCN(C)C1N2C` (single isomer, unassigned) [N-heptyl physostigmine], in series [1], the original activity regained came out at 10%. Moreover, the “second order rate constants, ki, for inactivation” value (“second order rate constants, ki” for short) at AChE E5 is listed as 1.4 × 10^6; at AChE E6, 1.6 × 10^6; on BuChE normal, 1.1 × 10^7 ± 0.3 × 10^7; on BuChE "atypical" it was 7.7 × 10^5 ± 4.4 × 10^5. In the series on "atypical" serum BuChE, the “reaction of "atypical" BuChE with carbamates, compared with its normal counterpart” value (from here on “reaction … compared with its normal counterpart”) is “much slower”. Moreover, the “inactivation rates of common BuChE compared with AChE” value at BuChE normal is recorded as “higher than or equal to”. Also, the “inactivation rates of "atypical" BuChE” value on BuChE "atypical" is on record as “considerably lower rates”. The molecule further registered a reactivation with AChE of 5%.
Turning to `CCN(C)C(=O)Oc1cccc([C@H](C)N(C)C)c1` [SDZ ENA-713], the “frequency of rapid eye movements during REM sleep” value with REM sleep is recorded as “increase the frequency of rapid eye movements during REM sleep”. Further, the “second order rate constants, ki” value is 3.3 × 10^3 at AChE E5, 4.3 × 10^3 on AChE E6, 1.4 × 10^4 ± 0.3 × 10^4 at BuChE normal and 4.7 × 10^2 ± 4.6 × 10^2 at BuChE "atypical". In series [2], this molecule registered a reactivation levels of at most 8%. The “loss of BuChE activity” value worked out at 95% in the series with normal serum BuChE and 80% in [3]. In addition, the “reaction … compared with its normal counterpart” value in the series on "atypical" serum BuChE is “much slower”. In the series with "atypical" serum BuChE (serum, 30 min, 10 µM), the “decrease in BuChE activity” value is on record as “about 40%”. Moreover, in the series with serum BuChE, the “serum BuChE activity” value is “transient drop in serum BuChE activity”. Besides, the “inactivation rates of common BuChE compared with AChE” value on BuChE normal was “higher than or equal to”. Further, the “inactivation rates of "atypical" BuChE” value at BuChE "atypical" is reported as “considerably lower rates”.
For `Nc1c2c(nc3ccccc13)CCCC2` [Tacrine, 1,2,3,4-tetrahydro-9 aminoacridine], in the series on Alzheimer's disease [4], the “improvement in Alzheimer's disease patients” value is given as “statistically significant, dose-related improvements”. Besides, in [5], the “cases in which aminotransferase reached 20 times the upper limit of normal” value was 2%; the “patients with severe cholinergic side-effects” value is recorded as “over 10%”; the “serum alanine aminotransferase level in 2% of the cases” value is listed as 20 times the upper limit of normal; the “serum alanine aminotransferase level, usually” value is “less than three times the upper limit of normal value”. Also, the “capacity of "atypical" BuChE to interact with tacrine, compared with the normal enzyme” value on serum BuChE "atypical" was “drastic reduction”. Moreover, the “serum BuChE activity” value with serum BuChE was “transient drop in serum BuChE activity”. Further, in series [6], the “inhibition curves of mixtures of normal and "atypical" enzyme” value is given as “expected intermediary inhibition curves”; the “inhibition in the presence of 1 μm tacrine” value is “intermediate levels of activity”. In addition, the “symptoms of PD patient” value with Parkinson's disease is listed as “worsening of the symptoms”.
On to `CC(=O)Oc1ccccc1C(=O)O` [aspirin], for which, in the series with "atypical" BuChE [7], the “Km with "atypical" variant, higher than with usual enzyme” value (from here on “Km with "atypical" variant, higher than”) is recorded as about 4 fold.
As to `CN(C)C(=O)Oc1cc(OC(=O)N(C)C)cc(C(O)CNC(C)(C)C)c1` (stereo not drawn) [bambuterol], in the series with "atypical" BuChE [8], the “IC50, higher for "atypical" than wild-type BuChE” value is “at least 10 fold” and the “Ki, higher for "atypical" than wild-type BuChE” value is reported as “at least 10 fold”.
With `CCCCOc1cc(C(=O)NCCN(CC)CC)c2ccccc2n1` [dibucaine], the “hydrolysis by "atypical" BuChE” value with "atypical" BuChE [9] was “inability of the affected enzyme to hydrolyze”.
For `CC(=O)Oc1ccc2c3c1O[C@H]1[C@@H](OC(C)=O)C=C[C@H]4[C@@H](C2)N(C)CC[C@@]341` [heroin], in the series with "atypical" BuChE [7], the “Km with "atypical" variant, higher than” value is 4 fold.
As for `CC(C)NP(=O)(NC(C)C)OP(=O)(NC(C)C)NC(C)C` [iso-OMPA], the “sensitivity of the atypical variant to inhibitors” value in the series with "atypical" BuChE [8] is on record as “much less sensitive”.
As to `CNC(=O)Oc1ccc2c(c1)[C@]1(C)CCN(C)[C@@H]1N2C` [physostigmine], the “effect on cognitive functions” value in the series on Alzheimer's disease [10] is “small, short-term positive effect on cognitive functions”. Also, the “reaction … compared with its normal counterpart” value with "atypical" serum BuChE is reported as “much slower”. Besides, in the series with "atypical" BuChE [8], the “IC50, higher for "atypical" than wild-type BuChE” value is reported as “at least 10 fold”; the “Ki, higher for "atypical" than wild-type BuChE” value is “at least 10 fold”; the “sensitivity of the atypical variant to inhibitors” value is listed as “much less sensitive”. Further, at BuChE normal, the “inactivation rates of common BuChE compared with AChE” value was “higher than or equal to” and the “second order rate constants, ki” value is listed as 3.8 × 10^5 ± 1.6 × 10^5. At BuChE "atypical", the “inactivation rates of "atypical" BuChE” value is given as “considerably lower rates” and the “second order rate constants, ki” value is recorded as 2.6 × 10^4 ± 0.9 × 10^4. Moreover, in the series on AChE, the spontaneous reactivation entry is “up to 90%”.
On to `CCN(CC)CCOC(=O)c1ccc(N)cc1` [procaine], for which the “Km with "atypical" variant, higher than” value in the series on "atypical" BuChE [7] is on record as 15 fold.
As to `CN(C)C(=O)Oc1ccc[n+](C)c1` [pyridostigmine], the “adverse symptoms under pyridostigmine” value in series [11] is “insomnia, weight loss and general fatigue, which worsened consistently, and a deep depression”. Moreover, the reactivation in [1] was found to be 10%; in the series with AChE, 50%. The “second order rate constants, ki” value at AChE E5 was 2.5 × 10^4; at AChE E6, 2.2 × 10^4; at BuChE normal, 1.9 × 10^3 ± 0.2 × 10^3. For the same molecule, the “reaction … compared with its normal counterpart” value in the series with "atypical" serum BuChE is listed as “much slower”.
As to `C[N+](C)(C)CCOC(=O)CCC(=O)OCC[N+](C)(C)C` [succinylcholine], in the series with "atypical" BuChE [12], the “hydrolysis by serum BuChE of H. K.” value is on record as “totally incapable of hydrolyzing; also recorded: cannot hydrolyze”. The post-anesthesia apnea entry in series [13] is “two hour post-anesthesia apnea”. Further, in the series with horse serum BuChE, the “hydrolysis by horse serum BuChE” value was “will not hydrolyze”. For the same molecule, in the series with "atypical" BuChE [9], the “hydrolysis by "atypical" BuChE” value was “unable to hydrolyze; also recorded: inability of the affected enzyme to hydrolyze”.
